The text below walks through data of patent EP0319316A2, “Griseolic acid monoesters, their preparation and use” (SANKYO COMPANY LIMITED, priority 1987, dated 1989).

On the set-up of data set [1]: species or system Male albino rabbits. The conditions noted are these: rabbit, in vivo. On the procedure: Animals: Male albino rabbits, each weighing about 2.5 kg, were used in a group of 5 animals.
Drug preparation and administration: the compound of Example 19(b) was dissolved in a 0.1 M sodium phosphate buffer (pH 7.2) and administered topically to one eye of the rabbit twice a day at […] and 16:00 for one week, although the administration at 16:00 on the final day was not carried out. The other group was left intact as a control. Four hours after the final administration at 09:00, blood was collected from the marginal ear vein of the rabbit in a syringe, and was centrifuged to obtain the serum.
Biochemical analysis of the serum: the rabbit serum was biochemically analyzed for trigly.ceride (TG), total cholesterol (T-CHO), alkaline phosphatase (ALP), total protein (TP), phospholipid (PL), urea nitrogen (UN), glucose (GLU), transaminase (GOT and GPT), albumin (ALB), total calcium (CA), inorganic phosphorus (IP), creatinine (CRE), and ratio of albumin to globulin (A/G). The analysis was carried out by using an autoanalyzer (HITACHI, Japan).

For the next data set, the system named is IOP. The data set can be described thus: IOP lowering effect, area between IOP-time curves (Experiment 6). The conditions noted are these: Concentration 2.0 %; 25 µℓ three times every 2 minutes; ratio of areas between IOP lines. In kind it is in vivo, male New Zealand white rabbits. On the procedure:
In the following Experiments 1 to 6, the test animals used were male New Zealand white rabbits, each weighing about 2.5 kg, raised in a room where the room temperature, relative humidity and lighting time were controlled to be 23° C, 60% and from 07:00 to 19:00, respectively. The animals were chosen from those where no abnormalities could be detected in their eyes by observation with the naked eye. They were given water freely but feed was restricted.
The compound under test was dissolved in 100 mM of a sodium phosphate buffer solution (pH 7.2) containing a small amount of a 0.1 N aqueous solution of sodium hydroxide. In the case of timolol maleate, a 0.5% w/v eye lotion (Timoptol 0.5%, Santen Pharm. Co.) was used as such.
The cornea of the rabbit was anesthetized by the topical application of one or two drops of 0.4% oxybuprocaine hydrochloride. The IOP was measured two or three times for each eye and the mean value was calculated and is reported as the IOP value. After the IOP of the rabbit eye had been measured, 25 µℓ of the sample solution was applied to center of the cornea of one eye three times every 2 minutes. The other eye was treated with the vehicle alone in a similar way. The IOP of both eyes was then measured.
IOP values obtained from both eyes were plotted against times after application and the area enclosed by the two IOP lines (with and without the active compound) was calculated. The IOP lowering effect of each sample was expressed as a ratio of the area described above to that of 0.5^0/o timolol.

Regarding `CC(=O)Oc1ccc(COC(=O)C23C=C(C(O)C(=O)O)OC2C(O)C(n2cnc4c(N)ncnc42)O3)cc1` (centres unmarked) [Example 19(b), 9'-(4-Acetoxybenzyl) griseolate], in data set [1], the A/G was 15.6 ± 2.5, the ALB was 5.0 ± 0.1 g/dL, the ALP turned out to be 379.0 ± 49.0 IU/ℓ and the CA is 14.0 ± 0.2 mg/dL. For the same compound, in data set [1], the CRE is 0.90 ± 0.05 mg/dL, the GLU worked out at 137.0 ± 3.0 mg/dL, the GOT is listed as 9.6 ± 1.5 IU/ℓ and the GPT is listed as 19.6 ± 3.9 IU/ℓ. In data set [1], this compound registered a PL of 91.8 ± 4.6 mg/dL, a T-CHO of 45.0 ± 3.2 mg/dL, a TG of 58.4 ± 5.4 mg/dL and a TP of 5.3 ± 0.2 g/dL. In addition, the UN in data set [1] was 17.9 ± 0.9 mg/dL. The “IOP Lowering Effect (Ratio to 0.5% timolol)” value in the data set on IOP amounted to 2.35.
